These results are taken from ChEMBL document CHEMBL1151136, “Searching for Bioactive Compounds: Various Strategies” (J Nat Prod, 1990).

In brackets after ≈: the same amount, converted by molar mass.

Data set [1] can be described thus: Cytotoxicity against ovarian cancer cells. It is filed as functional. The note with it: Cancer cell lines; read-out: ID50 (the source's name).
The subject of data set [2] is Penicillium citrinum. The data set is described as follows: Antimicrobial activity against Penicillium citrinum. It is filed as functional.
Data set [3] deals with Bacillus subtilis. The data set is described as follows: Antimicrobial activity against Bacillus subtilis. It is filed as functional.
Data set [4] has as its system Staphylococcus aureus. The data set is described as follows: Antimicrobial activity against Staphylococcus aureus. The class given is functional.
Data set [5] can be described thus: Cytotoxicity against CHL cells. The class given is cell-based, Cricetulus griseus. To be noted: chinese hamster, read-out: LD50 (the source's name).

On to `C=C/C(C)=C/C[C@]1(C)[C@H]2C[C@@H](O)C=C3[C@H](OC(C)=O)O[C@@H](OC(C)=O)[C@@]32[C@H](OC(=O)/C=C/c2ccccc2)C[C@@H]1C`, for which, in data set [1], the IC50 is 35 µg/mL (≈ 62 µM).

As usually defined, the MIC is the least concentration at which growth counts as inhibited. Lower therefore signals inhibition by little substance. For the compound `CC(=O)O[C@@H]1[C@H](OC(C)=O)[C@@H](Oc2c(-c3ccc(O)cc3)oc3cc(O)cc(O)c3c2=O)O[C@H](C)[C@H]1OC(=O)/C=C/c1ccc(O)cc1`, the MIC in data set [2] was less than 30 µg/mL.

Regarding `C=C(CC(=O)O)C(=O)C[C@@]1(C)[C@H](C)CC[C@@]2(C)C(C)=CCC[C@H]12`, the results for the MIC in data set [3] and in data set [4] were 25 µg/mL (≈ 78.5 µM) and 20 µg/mL (≈ 62.8 µM), respectively.

Turning to `C=C/C(C)=C/C[C@@]1(C)[C@@H](C)[C@H](OC(=O)CCCCCCCCC)[C@@H](OC(C)=O)[C@]23C(=C[C@H](O)C[C@@]21C)[C@@H](OC(C)=O)O[C@@H]3OC(C)=O`, in data set [5], the CC50 turned out to be 770 nM.

Turning to `CN[C@@H]1[C@H](O[C@H]2[C@H](O[C@H]3[C@H](O)[C@@H](O)[C@H](N=C(N)N)[C@@H](O)[C@@H]3N=C(N)N)O[C@@H](C)[C@]2(O)C=O)O[C@@H](CO)[C@H](O)[C@H]1O.CN[C@@H]1[C@H](O[C@H]2[C@H](O[C@H]3[C@H](O)[C@@H](O)[C@H](N=C(N)N)[C@@H](O)[C@@H]3N=C(N)N)O[C@@H](C)[C@]2(O)C=O)O[C@@H](CO)[C@H](O)[C@H]1O.O=S(=O)(O)O.O=S(=O)(O)O.O=S(=O)(O)O` [STREPTOMYCIN SULFATE], the MIC is 12.5 µg/mL in data set [3] and 6.3 µg/mL in data set [4].
